The source of these data is patent US20210000986A1, “INCLUSION COMPLEXES SUITABLE FOR USE AS A HISTOTRIPSY AGENT” (T.C ISTANBUL MEDIPOL ÜNIVERSITESI, priority 2018, published 2021).

Data set [1] can be described thus: Dynamic light scattering (DLS) size testing. In kind it is physicochemical. The source says:
The size of the complex plays an important role in determining the threshold for histotripsy. Small size particles are more easily injected and they accumulate highly in tumor tissue. […] The results obtained in the DLS tests are shown as a graph in FIG. 2. Herein BCD is beta-cyclodextrin; MBCD is methylated beta-cyclodextrin and MIC refers to the inclusion complex of methylated beta-cyclodextrin and perfluorohexane.

The test system of a further data set is kidney HEK-293T cells. In kind it is cell-based. As for the experimental part:
The cell viability test is important to determine how the methylated beta-cyclodextrin perfluorohexane inclusion complex interacts with cells in the body.
Inclusion complexes according to the invention were tested using kidney HEK-293T cells from the reticulo-endothelial system organs responsible for cleansing blood in the body and removing various particles and antigens from blood flow and forming inflammatory mediators against immunological stimuli.
For this purpose, beta-cyclodextrin (BCD), methylated beta-cyclodextrin (MCD) and methylated beta-cyclodextrin and perfluorohexane inclusion complex (MIC) solutions at a concentration of 0.1 mg/mL, 0.5 mg/mL and 1 mg/mL were prepared. In addition, perfluorohexane (PFH) at amounts of 0.1 μL, 0.13 μL, 0.15 μL were also tested on the same cells. The amount of perfluorohexane tested was based on the amount of perfluorohexane in 1 mg/mL MIC. It was determined that in 1 mg/mL MIC there is 0.15 μL of perfluorohexane.

On to `OC[C@H]1O[C@@H]2O[C@H]3[C@H](O)[C@@H](O)[C@@H](O[C@H]4[C@H](O)[C@@H](O)[C@@H](O[C@H]5[C@H](O)[C@@H](O)[C@@H](O[C@H]6[C@H](O)[C@@H](O)[C@@H](O[C@H]7[C@H](O)[C@@H](O)[C@@H](O[C@H]8[C@H](O)[C@@H](O)[C@@H](O[C@H]1[C@H](O)[C@H]2O)O[C@@H]8CO)O[C@@H]7CO)O[C@@H]6CO)O[C@@H]5CO)O[C@@H]4CO)O[C@@H]3CO` [beta-cyclodextrin], for which the “size (DLS)” value in data set [1] is reported as 16.42 nm.

On to `FC(F)(F)C(F)(F)C(F)(F)C(F)(F)C(F)(F)C(F)(F)F` [perfluorohexane], for which the “toxicity (conclusion from cell viability)” value with kidney HEK-293T cells is listed as “not toxic”. In the data set on kidney HEK-293T cells (human, 0.15 μL), this compound came in with a cell viability of 89%.

In the case of methylated beta-cyclodextrin, the “size (DLS)” value in data set [1] is given as 19.55 nm.

As usually defined, the cell viability is a read-out of living cells in per cent, often relative to untreated cells.
